# Measurements reported in EPA's ToxValDB 9.5 (doi:10.2903/j.efsa.2009.299r).
# How the values were obtained:
# [1] = test system: Rattus norvegicus; settings: for LD50: acute, mortality
# [2] = test system: Canidae; settings: chronic; duration: 2 years; oral; Dog Other; body weight
# [3] = test system: Colinus virginianus; settings: for LC50: diet
# [4] = test system: Oryctolagus sp.
# [5] = test system: Apis mellifera; settings: acute, mortality
# [6] = test system: Bibionidae; settings: chronic/long-term; duration: 28 days; other
# [7] = test system: Daphnia magna
# [8] = test system: Folsomia candida; settings: chronic/long-term; duration: 28 days
# [9] = test system: Mus musculus; settings: chronic; duration: 78 weeks; oral; diet; histopathology: neoplastic
# [10] = test system: Oncorhynchus mykiss; settings: acute; duration: 96 hours; mortality
# [11] = test system: Pimephales promelas; settings: chronic/long-term; duration: 33 days; growth
# [12] = test system: Tagia sp.
structure (smiles),measurement,setting,value
CS(=O)c1cc(C(F)(F)F)cnc1C(=O)O (centres undefined),LD50,[1]; oral,> 5000 mg/kg-day
O=C(O)c1ncc(C(F)(F)F)cc1Cl [3-Chloro-5-(trifluoromethyl)pyridine-2-carboxylic acid],LD50,[1]; oral,5000 mg/kg-day
"NC(=O)c1c(Cl)cccc1Cl [2,6-Dichlorobenzamide]",NOAEL,[2],4.5 mg/kg-day
same,LC50,"[3]; acute, oral, mortality",1170 mg/kg-day
same,NOAEL,"[4]; reproduction developmental, body weight",30 mg/kg-day
same,LD50,"[1]; oral, F",500 mg/kg-day
same,LD50,"[1]; oral, M",2000 mg/kg-day
same,NOAEL,"[1]; chronic, duration: 2 years, oral, histopathology: nonneoplastic",5.7 mg/kg-day
O=C(O)c1ncc(C(F)(F)F)cc1S(=O)(=O)O [3-Sulfo-5-trifluoromethyl pyridine-2-carboxylic acid],LD50,[1]; oral,> 5000 mg/kg-day
O=C(NCc1ncc(C(F)(F)F)cc1Cl)c1c(Cl)cccc1Cl [Fluopicolide],LD50,[5]; dermal,> 100 µg/piece
same,LD50,"[5]; oral, unspecified",> 241 µg/piece
same,NOEC,[6],49 mg/kg
same,LC50,"[3]; acute, oral, mortality",> 1740 mg/kg-day
same,LD50,"[3]; acute, oral, mortality",> 2250 mg/kg-day
same,NOEC,[3]; reproduction developmental,88.9 mg/kg-day
same,LC50,"[7]; acute, duration: 48 hours, mortality",> 1.8 µg/mL
same,NOEC,"[7]; chronic/long-term, duration: 21 days, reproduction",0.37 mg/L
same,NOEC,[8],31.2 mg/kg
same,NOAEL,[9],7.9 mg/kg-day
same,LC50,[10],0.36 µg/mL
same,NOAEL,"[4]; developmental, development",20 mg/kg-day
same,NOEL,"[4]; developmental, development",20 mg/kg-day
same,NOEC,[11],0.155 mg/L
same,LD50,[1]; oral,> 5000 mg/kg-day
same,NOAEL,"[1]; chronic, duration: 2 years, histopathology: nonneoplastic",8.4 mg/kg-day
same,NOAEL,"[1]; short-term, duration: 28 days, oral, body weight",17.7 mg/kg-day
same,NOAEL,"[1]; subchronic, duration: 90 days, oral, organ weight",7.4 mg/kg-day
same,LC50,"[12]; acute, duration: 14 days, mortality",> 500 mg/kg
same,NOEC,"[12]; chronic/long-term, duration: 28 days, growth",62.5 mg/kg
